From patent publication US6444684B1 (priority 1993, dated 2002)
Read-outs that look alike come from different tables or passages of the source.

Columns and labels:
[1] = found by other investigators; cited from earlier work
[2] = system: 3LL = Lewis Lung Carcinoma Cells; settings: for Differential Index 3LL: 3LL = Lewis lung carcinoma cells, compared with normal NRKE cells
[3] = system: H/1.2 = ras^H Transformed NRKE Cells; settings: for Differential Index H/1.2: H/1.2 = ras^H transformed NRKE cells, compared with normal NRKE cells
Renal Cancer cell lines = test: NCI in vitro anticancer screen (SRB), renal cancer subpanel; settings: for Activity (Average PG for highest dose tested) Renal Cancer: 48 hours exposure, average percent growth over the cell lines
Description: (§1) Compounds chosen for the program are initially tested in an in vitro anticancer screen. A total of fifty-five human tumor cell lines, derived from nine cancer types (lung, colon, melanoma, renal, ovarian, brain, prostate, breast and leukemia), are used in this screen. The tumor cells are inoculated over a series of standard 96-well microtiter plates on day 0. These cells are then preincubated on the microtiter plates for 24 hours. The test compounds are added to the wells in five 10-fold dilutions starting from the highest soluble concentration. Each compound is tested against every cell line in the panel. The compounds are incubated for 48 hours with the tumor cell lines. At the termination of the assay, the cells are fixed in situ, washed, and dried. Sulforhodamine B (SRB), a pink anionic dye that binds to the basic amino acids of trichloroacetic acid-fixed cells, is added. The cells are washed again, and the remaining dye is a function of the adherent cell mass. The bound stain is solubilized and measured spectrophotometrically. The data are entered from automatic reading devices into a computer for subsequent storage and analysis.
(§2) The measured effect of each test compound on the cell lines is calculated according to one or the other of the following two expressions:
(§3) If (Mean ODtest−Mean ODtzero)□0, then PG=100×(Mean ODtest−Mean ODtzero)/(Mean ODctrl−Mean ODtzero);
(§4) If (Mean ODtest−Mean ODtzero)<0, then PG=100×(Mean ODtest−Mean ODtzero)/Meantzero;
(§5) First, a data sheet is provided which lists, for each cell line, the Mean ODtzero, the Mean ODctrl, the Mean ODtest for each of the five concentrations, the calculated PGs for each concentration, and the response parameters G150, TGI, and LC50.
(§6) Third, mean graphs at each of the principal response parameters (GI50, TGI, and LC50) are provided. […] Since the bar scale is logarithmic, a bar two units to the right implies the compound achieved the response parameter (e.g., GI50) for the cell line at a concentration 1/100 the mean concentration required over all cell lines, and thus the cell line is unusually sensitive to that compound. Bars extending to the left correspondingly imply sensitivity less than the mean. Thus, the mean graphs facilitate visual scanning of data for potential patterns of selectivity for particular cell lines or for particular subpanels with respect to a selected response parameter.

Colon Cancer cell lines = test: NCI in vitro anticancer screen (SRB), colon cancer subpanel; settings: 48 hours exposure; average percent growth over the cell lines
[4] = system: Ovarian Cancer cell lines; test: NCI in vitro anticancer screen (SRB), ovarian cancer subpanel; settings: 48 hours exposure; average percent growth over the cell lines
Description: as §1, §2, §3, §4

HIV-RT = HIV-RT (Human immunodeficiency virus type 1 group M subtype B, UniProt P03366); test: HIV-RT inhibition by AZT-TP, lavendamycin analogs and their combinations; assay type: biochemical; design: unit of the concentration uncertain; settings: AZT-TP Conc. 0 (unit uncertain); for % inh. ave.: average of three trials
Excerpt: AZT-TP was used for these in vitro studies since AZT is naturally phosphorylated in vivo.
The results of these tests are given in Table XVIII and XIX below, where the percent inhibition of HIV-RT activity is reported for three different trials and then averaged in the seventh column. […] .

[5] = system: Prostate Cancer cell lines; test: NCI in vitro anticancer screen (SRB), prostate cancer subpanel; settings: 48 hours exposure; average percent growth over the cell lines
Description: as §1, §2, §3, §4

CNS Cancer cell lines = test: NCI in vitro anticancer screen (SRB), CNS cancer subpanel; settings: 48 hours exposure; average percent growth over the cell lines
Description: as §1, §2, §3, §4, §5, §6

Melanoma cell lines = test: NCI in vitro anticancer screen (SRB), melanoma subpanel; settings: 48 hours exposure; average percent growth over the cell lines
Description: as §1, §2, §3, §4, §5, §6

Breast Cancer cell lines = test: NCI in vitro anticancer screen (SRB), breast cancer subpanel; settings: 48 hours exposure; average percent growth over the cell lines
Description: as §1, §2, §3, §4

[6] = system: K/1 = ras^K Transformed NRKE Cells; settings: for Differential Index K/1: K/1 = ras^K transformed NRKE cells, compared with normal NRKE cells
[7] = system: normal rat kidney epithelial (NRKE) cells
[8] = system: Non-Small Cell Lung Cancer cell lines; test: NCI in vitro anticancer screen (SRB), non-small cell lung cancer subpanel; settings: for Activity (Average PG for highest dose tested) Non-Small Cell Lung Cancer: 48 hours exposure, average percent growth over the cell lines
Description: as §1, §2, §3, §4, §5, §6

Leukemia cell lines = test: NCI in vitro anticancer screen (SRB), leukemia subpanel; settings: 48 hours exposure; average percent growth over the cell lines
[9] = system: N/4.2-NRKE transformed by the human ras^N gene; settings: for Differential Index N/4.2: N/4.2 = ras^N transformed NRK cells, compared with normal NRKE cells
ras oncogene p21 protein = settings: U.S. Pat. No. 5,158,960; Liu et al.; cited from earlier work
[10] = system: 3LL = Lewis Lung Carcinoma Cells; test: cells; settings: Mus musculus
[11] = NCI toxicity studies, maximum tolerated dose; settings: mouse, in vivo; mice
Description: As a result of its performance in an initial and a repeat cancer screen, compound 55 has been selected for in vivo testing. Compound 55 was chosen primarily because of its selectivity for non-small cell lung cancer. To date, toxicity studies have been performed, and the maximum tolerated dose in mice has been determined to be 400 mg/kg.

[12] = system: K/1 = ras^K Transformed NRKE Cells; test: cells; settings: Rattus norvegicus
[13] = system: H/1.2 = ras^H Transformed NRKE Cells; test: cells; settings: Rattus norvegicus
[14] = system: N/4.2-NRKE transformed by the human ras^N gene; test: cells; settings: N42, read-out: LC50 N/4.2
[15] = 120 h, read-out: LC50 3LL, Table VII, concentration giving 50% cell kill, 5 days exposure
[16] = read-out: LC50 3LL, Table XV (Example 51)

Cc1c(C(=O)O)nc(-c2ccc3c(n2)C(=O)C(N)=CC3=O)c2[nH]c3ccccc3c12 [lavendamycin, Lavendamycin]
dose that is lethal [1]: 100 mg/kg/day

CC(=O)NC1=CC(=O)c2ccc(-c3nc(C(N)=O)cc4c3[nH]c3ccccc34)nc2C1=O [Compound 16]
CC50 [2]: 210 nM
Differential Index 3LL [2]: 4.29
CC50 [3]: 230 nM
Differential Index H/1.2 [3]: 3.91
Activity (Average PG for highest dose tested) Renal Cancer (Renal Cancer cell lines): −72.9%
Selectivity: sensitivity of one of the seven renal cancer cell lines relative to average sensitivity of the fifty-five cell lines (Renal Cancer cell lines; at GI50, TGI and/or LC50, initial screen): One of the seven renal cancer cell lines was about 100 times
selectivity for renal cancer (in words) (Renal Cancer cell lines; repeat cancer screen): did not exhibit the selectivity for renal cancer
Activity (Average PG for highest dose tested) Colon Cancer (Colon Cancer cell lines): −52.1%
Activity (Average PG for highest dose tested) Ovarian Cancer [4]: −55.5%
% inh. Trial 1 (HIV-RT; LA Conc. 3.0 (unit uncertain)): 0%
% inh. Trial 2 (HIV-RT; LA Conc. 3.0 (unit uncertain)): 3%
% inh. Trial 3 (HIV-RT; LA Conc. 3.0 (unit uncertain)): 12%
% inh. ave. (HIV-RT; LA Conc. 3.0 (unit uncertain)): 5.0%
% inh. Trial 1 (HIV-RT; LA Conc. 6.0 (unit uncertain)): 26%
% inh. Trial 2 (HIV-RT; LA Conc. 6.0 (unit uncertain)): 33%
% inh. Trial 3 (HIV-RT; LA Conc. 6.0 (unit uncertain)): 30%
% inh. ave. (HIV-RT; LA Conc. 6.0 (unit uncertain)): 29.7%
% inh. Trial 1 (HIV-RT; LA Conc. .5 (unit uncertain)): 0%
% inh. Trial 2 (HIV-RT; LA Conc. .5 (unit uncertain)): 0%
% inh. Trial 3 (HIV-RT; LA Conc. .5 (unit uncertain)): 0%
% inh. ave. (HIV-RT; LA Conc. .5 (unit uncertain)): 0.0%
Activity (Average PG for highest dose tested) Prostate Cancer [5]: −18.0%
Activity (Average PG for highest dose tested) CNS Cancer (CNS Cancer cell lines): −60.4%
Activity (Average PG for highest dose tested) Melanoma (Melanoma cell lines): −78.4%
Activity (Average PG for highest dose tested) Breast Cancer (Breast Cancer cell lines): −45.1%
CC50 [6]: 350 nM
Differential Index K/1 [6]: 2.57
CC50 [7]: 900 nM
Activity (Average PG for highest dose tested) Non-Small Cell Lung Cancer [8]: −52.3%
Activity (Average PG for highest dose tested) Leukemia (Leukemia cell lines): −28.3%
CC50 [9]: 220 nM
Differential Index N/4.2 [9]: 4.09

COC1=C(N)C(=O)c2nc(-c3nc(C(=O)O)c(C)c(-c4ccc(OC)cc4O)c3N)ccc2C1=O [10′-Desmethoxystreptonigrin, 10′-desmethoxystreptonigrin]
activity relative to streptonigrin in an assay for the inhibition of the farnesylation of ras oncogene p21 protein (ras oncogene p21 protein): three times more active than streptonigrin

COC(=O)c1nc(-c2ccc3c(n2)C(=O)C(N)=CC3=O)c2[nH]c3ccccc3c2c1C [Compound 55, lavendamycin methyl ester, reference compound]
Differential Index 3LL [2]: 0.4
Differential Index H/1.2 [3]: 0.9
Activity (Average PG for highest dose tested) Renal Cancer (Renal Cancer cell lines): −63.8%
Activity (Average PG for highest dose tested) Colon Cancer (Colon Cancer cell lines): −20.0%
CC50 [10, 15]: 500 nM
CC50 ([10]; read-out: LC50 3LL, Table VIII): 500 nM
CC50 [10, 16]: 250 nM
CC50 ([10]; read-out: LC50 3LL, second table headed TABLE VIII): 500 nM
Activity (Average PG for highest dose tested) Ovarian Cancer [4]: −43.5%
MTD [11]: 400 mg/kg
CC50 ([12]; 120 h, read-out: LC50 K/1, Table VII, concentration giving 50% cell kill, 5 days exposure): 200 nM
CC50 ([12]; read-out: LC50 K/1, Table VIII): 200 nM
CC50 ([12]; read-out: LC50 K/1, Table XV (Example 51)): 30 nM
CC50 ([12]; read-out: LC50 K/1, second table headed TABLE VIII): 200 nM
CC50 at 5 days (in vitro): 100 nM
Activity (Average PG for highest dose tested) Prostate Cancer [5]: −31.0%
CC50 ([13]; 120 h, read-out: LC50 H/1.2, Table VII, concentration giving 50% cell kill, 5 days exposure): 100 nM
CC50 ([13]; read-out: LC50 H/1.2, Table VIII): 100 nM
CC50 ([13]; read-out: LC50 H/1.2, Table XV (Example 51)): 110 nM
CC50 ([13]; read-out: LC50 H/1.2, second table headed TABLE VIII): 100 nM
CC50 [14]: 60 nM
Activity (Average PG for highest dose tested) CNS Cancer (CNS Cancer cell lines): −39.3%
Activity (Average PG for highest dose tested) Melanoma (Melanoma cell lines): −53.0%
Activity (Average PG for highest dose tested) Breast Cancer (Breast Cancer cell lines): −43.8%
Differential Index K/1 [6]: 3.33
selective toxicity (Table IX) ([6]; ras^K cells versus normal cells): 0.5
Activity (Average PG for highest dose tested) Non-Small Cell Lung Cancer [8]: −60.8%
Selectivity: sensitivity of one of the seven non-small cell lung cancer cell lines relative to average sensitivity of the fifty-five cell lines ([8]; at GI50, TGI and/or LC50): ~100 times more sensitive to compound 55 than the
Activity (Average PG for highest dose tested) Leukemia (Leukemia cell lines): +30.0%
Differential Index N/4.2 [9]: 1.67

CC(=O)NC1=CC(=O)c2ccc(C)nc2C1=O [Compound 27, 7-ACETAMIDO-2-METHYLQUINOLINE-5,8-DIONE]
Differential Index 3LL [2]: 1.8
Differential Index H/1.2 [3]: 0.9
CC50 [10, 15]: 2000 nM
CC50 [10, 16]: 2600 nM
CC50 ([12]; 120 h, read-out: LC50 K/1): 5900 nM
CC50 ([12]; read-out: LC50 K/1): 14000 nM
CC50 at 5 days (in vitro; rat, LC50 NRKE): 2400 nM
CC50 ([13]; 120 h, read-out: LC50 H/1.2): 4400 nM
CC50 ([13]; read-out: LC50 H/1.2): 5000 nM
CC50 [14]: 5700 nM
Differential Index K/1 [6]: 0.3
CC50 ([7]; rat, 5 days): 4600 nM
Differential Index N/4.2 [9]: 0.8
